Activity and IC50 data for three compounds are collected here from ChEMBL document CHEMBL1151200, “Comparison of fascaplysin and related alkaloids: a study of structures, cytotoxicities, and sources” (J Nat Prod, 2004).

The structures appear in SMILES notation.

The subject of data set [1] is L1210. Put plainly: Cytotoxicity against mouse L1210 cells at 64 ug/disk by disk diffusion soft agar colony formation assay. Type of data set: functional.
The subject of data set [2] is MC-38. Description: Cytotoxicity against mouse C38 cells at 64 ug/disk by disk diffusion soft agar colony formation assay. Type of data set: functional.
Data set [3] can be described thus: Cytotoxicity against human H116 cells at 64 ug/disk by disk diffusion soft agar colony formation assay. It is filed as functional.
Data set [4] in a line: Cytotoxicity against human H125 cells at 64 ug/disk by disk diffusion soft agar colony formation assay. It is filed as functional.
In data set [5] the test system is A549. Description: Antitumor activity against human A549/ATCC cells. Type of data set: functional, cell-based.
Data set [6] has as its system EKVX. Put plainly: Antitumor activity against human EKVX cells. Type of data set: functional, cell-based.
The subject of data set [7] is HOP-62. Put plainly: Antitumor activity against human HOP62 cells. Type of data set: functional, cell-based.
The test system of data set [8] is HOP-92. Put plainly: Antitumor activity against human HOP92 cells. Type of data set: functional, cell-based.
For data set [9], the system named is NCI-H226. Description: Antitumor activity against human NCI-H226 cells. Type of data set: functional, cell-based.
Data set [10] has as its system NCI-H23. Description: Antitumor activity against human NCI-H23 cells. Type of data set: functional, cell-based.
For data set [11], the system named is NCI-H322M. Put plainly: Antitumor activity against human NCI-H322M cells. It is filed as functional, cell-based.
Data set [12] deals with NCI-H460. Description: Antitumor activity against human NCI-H460 cells. It is filed as functional, cell-based.
The test system of data set [13] is NCI-H522. Description: Antitumor activity against human NCI-H522 cells. It is filed as functional, cell-based.
Data set [14] relates to COLO 205. Description: Antitumor activity against human COLO205 cells. It is filed as functional, cell-based.
Data set [15] deals with HCC 2998. Put plainly: Antitumor activity against human HCC2998 cells. Type of data set: functional, cell-based.
Data set [16] deals with HCT-116. Put plainly: Antitumor activity against human HCT116 cells. It is filed as functional, cell-based.
Data set [17] deals with HCT-15. Put plainly: Antitumor activity against human HCT15 cells. It is filed as functional, cell-based.
The subject of data set [18] is KM12. Description: Antitumor activity against human KM12 cells. Type of data set: functional, cell-based.
Data set [19] deals with SW-620. Description: Antitumor activity against human SW620 cells. It is filed as functional, cell-based.
Data set [20] has as its system SF-268. Description: Antitumor activity against human SF268 cells. Type of data set: functional, cell-based.
For data set [21], the system named is SF-295. Put plainly: Antitumor activity against human SF295 cells. Type of data set: functional, cell-based.
Data set [22] deals with SNB-19. Put plainly: Antitumor activity against human SNB19 cells. Type of data set: functional, cell-based.
The test system of data set [23] is SNB-75. Description: Antitumor activity against human SNB75 cells. It is filed as functional, cell-based.
Data set [24] relates to U-251. Put plainly: Antitumor activity against human U251 cells. Type of data set: functional, cell-based.
The subject of data set [25] is LOX IMVI. Put plainly: Antitumor activity against human LOXIMVI cells. It is filed as functional, cell-based.
In data set [26] the test system is Malme-3M. Description: Antitumor activity against human MALME-3M cells. Type of data set: functional, cell-based.
In data set [27] the test system is M14. Description: Antitumor activity against human M14 cells. Type of data set: functional, cell-based.
Data set [28] has as its system SK-MEL-28. Put plainly: Antitumor activity against human SK-MEL-28 cells. It is filed as functional, cell-based.
Data set [29] deals with SK-MEL-5. Put plainly: Antitumor activity against human SK-MEL-5 cells. Type of data set: functional, cell-based.
The test system of data set [30] is UACC-257. Description: Antitumor activity against human UACC257 cells. It is filed as functional, cell-based.
Data set [31] deals with UACC-62. Description: Antitumor activity against human UACC62 cells. It is filed as functional, cell-based.
For data set [32], the system named is IGROV-1. Put plainly: Antitumor activity against human IGROV1 cells. It is filed as functional, cell-based.
The test system of data set [33] is OVCAR-3. Description: Antitumor activity against human OVCAR-3 cells. Type of data set: functional, cell-based.
The test system of data set [34] is OVCAR-4. Description: Antitumor activity against human OVCAR4 cells. Type of data set: functional, cell-based.
The subject of data set [35] is OVCAR-5. Description: Antitumor activity against human OVCAR5 cells. It is filed as functional, cell-based.
In data set [36] the test system is OVCAR-8. Put plainly: Antitumor activity against human OVCAR8 cells. It is filed as functional, cell-based.
Data set [37] relates to SK-OV-3. Put plainly: Antitumor activity against human SKOV3 cells. It is filed as functional, cell-based.
Data set [38] is described as follows: Antitumor activity against human 786-O cells. To be noted: 786-0. Type of data set: functional, cell-based.
Data set [39] relates to A498. Description: Antitumor activity against human A498 cells. It is filed as functional, cell-based.
The subject of data set [40] is ACHN. Description: Antitumor activity against human ACHN cells. It is filed as functional, cell-based.
Data set [41] concerns CAKI-1. Put plainly: Antitumor activity against human Caki1 cells. Type of data set: functional, cell-based.
The subject of data set [42] is RXF 393. Description: Antitumor activity against human RXF393 cells. Type of data set: functional, cell-based.
Data set [43] relates to SN12C. Description: Antitumor activity against human SN12C cells. It is filed as functional, cell-based.
Data set [44] deals with TK-10. Put plainly: Antitumor activity against human TK10 cells. It is filed as functional, cell-based.
Data set [45] relates to UO-31. Put plainly: Antitumor activity against human UO31 cells. Type of data set: functional, cell-based.
For data set [46], the system named is PC-3. Description: Antitumor activity against human PC3 cells. Type of data set: functional, cell-based.
The subject of data set [47] is MCF7. Put plainly: Antitumor activity against human MCF7 cells. It is filed as functional, cell-based.
Data set [48] deals with MCF7. Put plainly: Antitumor activity against […] human MCF7 cells. Type of data set: functional, cell-based.
A short description of data set [49]: Antitumor activity against human Hs 578T cells. It is filed as functional, cell-based.
Data set [50] deals with MDA-MB-435. Description: Antitumor activity against human MDA-MB-435 cells. It is filed as functional, cell-based.
For data set [51], the system named is BT-549. Description: Antitumor activity against human BT549 cells. It is filed as functional, cell-based.
In data set [52] the test system is T47D. Description: Antitumor activity against human T47D cells. Type of data set: functional, cell-based.
In data set [53] the test system is L1210. Description: Cytotoxicity against mouse L1210 cells 6.4 ug/disk by disk diffusion soft agar colony formation assay. It is filed as functional.
The test system of data set [54] is MC-38. Put plainly: Cytotoxicity against mouse C38 cells at 6.4 ug/disk by disk diffusion soft agar colony formation assay. It is filed as functional.
Data set [55] can be described thus: Cytotoxicity against mouse CFU-GM cells at 6.4 ug/disk by disk diffusion soft agar colony formation assay. Type of data set: cell-based.
A short description of data set [56]: Cytotoxicity against human H116 cells at 6.4 ug/disk by disk diffusion soft agar colony formation assay. Type of data set: functional.
A short description of data set [57]: Cytotoxicity against human H125 cells at 6.4 ug/disk by disk diffusion soft agar colony formation assay. It is filed as functional.
Data set [58] deals with CCRF-CEM. Description: Cytotoxicity against human CEM cells at 6.4 ug/disk by disk diffusion soft agar colony formation assay. It is filed as functional.
The test system of data set [59] is HL-60(TB). Put plainly: Antitumor activity against human HL-60(TB) cells. Type of data set: functional, cell-based.
Data set [60] concerns K562. Put plainly: Antitumor activity against human K562 cells. Type of data set: functional, cell-based.
Data set [61] concerns MOLT-4. Put plainly: Antitumor activity against human MOLT4 cells. Type of data set: functional, cell-based.
Data set [62] concerns RPMI-8226. Description: Antitumor activity against human RPMI8226 cells. Type of data set: functional, cell-based.
Data set [63] has as its system SR. Description: Antitumor activity against human SR cells. Type of data set: functional, cell-based.
Data set [64] concerns L1210. Put plainly: Cytotoxicity against mouse L1210 cells at 84 ug/disk by disk diffusion soft agar colony formation assay. It is filed as functional.
Data set [65] relates to MC-38. Put plainly: Cytotoxicity against mouse C38 cells at 84 ug/disk by disk diffusion soft agar colony formation assay. Type of data set: functional.
Data set [66] in a line: Cytotoxicity against mouse CFU-GM cells at 84 ug/disk by disk diffusion soft agar colony formation assay. It is filed as cell-based.
A short description of data set [67]: Cytotoxicity against human H116 cells at 84 ug/disk by disk diffusion soft agar colony formation assay. Type of data set: functional.
A short description of data set [68]: Cytotoxicity against human H125 cells at 84 ug/disk by disk diffusion soft agar colony formation assay. Type of data set: functional.
Data set [69] relates to CCRF-CEM. Put plainly: Cytotoxicity against human CEM cells at 84 ug/disk by disk diffusion soft agar colony formation assay. It is filed as functional.

On to `O=C(O)c1ccc(Br)cc1-[n+]1ccc2c(c1)[nH]c1ccccc12.[Cl-]`, for which the Activity was determined as 100 Zone units in data set [1], 250 Zone units in data set [2], 0 Zone units in data set [3] and 0 Zone units in data set [4].
`O=C1c2ccc(Br)cc2-[n+]2ccc3c([nH]c4ccccc43)c21.[Cl-]`: the IC50 in [5] was more than 10 µM; in [6], 3.6 µM; in data set [7], more than 10 µM; in data set [8] it was more than 10 µM; in data set [9], 5.3 µM; in data set [10] it was 890 nM. For the same compound, the half-maximal inhibitory concentration (IC50) was 650 nM in data set [11]; more than 10 µM in [12]; 680 nM in data set [13]; more than 10 µM in [14]; 910 nM in [15]; 760 nM in data set [16]. Further, the IC50 in data set [17] was more than 10 µM; in data set [18] it was 8.5 µM; in data set [19] it was more than 10 µM; in [20], 5.6 µM; in data set [21], 590 nM; in data set [22], 660 nM. The IC50 in [23] is 3.8 µM; in data set [24], more than 10 µM; in data set [25], more than 10 µM; in [26], 490 nM; in [27] it was 590 nM; in data set [28], 1300 nM. Besides, the IC50 in data set [29] was more than 10 µM; in [30] it was 5.3 µM; in data set [31], 630 nM; in data set [32], 740 nM; in data set [33], 4.4 µM; in [34], 590 nM. Besides, the IC50 was more than 10 µM in data set [35]; 600 nM in data set [36]; more than 10 µM in data set [37]; 7.1 µM in [38]; more than 10 µM in data set [39]; more than 10 µM in [40]. For the same compound, the IC50 in data set [41] was 1600 nM; in [42], 3.1 µM; in data set [43], 2900 nM; in data set [44], more than 10 µM; in data set [45], 530 nM; in data set [46], more than 10 µM. Also, the IC50 in data set [47] is 930 nM; in data set [48] it was 5.3 µM; in data set [49], 590 nM; in data set [50], more than 10 µM; in data set [51], 590 nM; in data set [52], more than 10 µM. Besides, the IC50 in data set [59], in data set [60], in data set [61], in data set [62] and in data set [63] was more than 10 µM each time. For the same compound, the Activity in data set [53] was 500 Zone units; in data set [54], 400 Zone units; in [55], 400 Zone units; in data set [56] it was 600 Zone units; in data set [57] it was 550 Zone units; in data set [58], 400 Zone units.
Regarding `Oc1ccc(Br)cc1-[n+]1ccc2c(c1)[nH]c1ccccc12.[Cl-]`, the Activity in [64] was found to be 450 Zone units; in [65], 400 Zone units; in data set [66], 450 Zone units; in data set [67] it was 500 Zone units; in data set [68], 550 Zone units; in data set [69], 750 Zone units.
